Reference: article PMC3914206

Experiments:
Format in all cases: binding
Settings in all cases: Compound Concentration 10 µM
[1] = molecular target: T1, panel of 442 kinases (Homo sapiens, UniProt Q9H2X6)
T1 construct: purchased KINOMEscan
Source text: (§1) We assessed the selectivity of members of this scaffold using the KINOMEscan methodology across a near comprehensive panel of 442 kinases [[18,27]].

[2] = molecular target: T2, panel of 442 kinases (Homo sapiens, UniProt Q00526)
T2 construct: purchased KINOMEscan
Source text: as §1

[3] = molecular target: T3, panel of 442 kinases (Homo sapiens, UniProt Q99759)
T3 construct: purchased KINOMEscan
T3 sequence (Q99759 1-626): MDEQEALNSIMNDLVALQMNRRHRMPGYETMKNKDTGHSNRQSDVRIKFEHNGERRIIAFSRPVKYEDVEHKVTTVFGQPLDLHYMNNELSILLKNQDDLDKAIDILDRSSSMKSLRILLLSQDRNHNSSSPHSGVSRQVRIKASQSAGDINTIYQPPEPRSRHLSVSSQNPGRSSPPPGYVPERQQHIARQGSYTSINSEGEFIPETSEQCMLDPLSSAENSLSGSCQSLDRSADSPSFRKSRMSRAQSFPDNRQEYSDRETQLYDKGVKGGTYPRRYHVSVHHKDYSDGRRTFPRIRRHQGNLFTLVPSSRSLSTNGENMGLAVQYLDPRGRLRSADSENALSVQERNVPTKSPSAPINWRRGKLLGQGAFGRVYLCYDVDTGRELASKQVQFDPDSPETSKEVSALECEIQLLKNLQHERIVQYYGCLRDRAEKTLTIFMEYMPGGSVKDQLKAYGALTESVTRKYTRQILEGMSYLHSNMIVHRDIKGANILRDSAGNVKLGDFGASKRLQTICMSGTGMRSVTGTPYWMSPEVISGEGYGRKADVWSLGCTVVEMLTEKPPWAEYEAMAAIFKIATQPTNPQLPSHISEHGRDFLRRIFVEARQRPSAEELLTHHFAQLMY
Source text: as §1

T1 sequence (Q9H2X6 whole entry): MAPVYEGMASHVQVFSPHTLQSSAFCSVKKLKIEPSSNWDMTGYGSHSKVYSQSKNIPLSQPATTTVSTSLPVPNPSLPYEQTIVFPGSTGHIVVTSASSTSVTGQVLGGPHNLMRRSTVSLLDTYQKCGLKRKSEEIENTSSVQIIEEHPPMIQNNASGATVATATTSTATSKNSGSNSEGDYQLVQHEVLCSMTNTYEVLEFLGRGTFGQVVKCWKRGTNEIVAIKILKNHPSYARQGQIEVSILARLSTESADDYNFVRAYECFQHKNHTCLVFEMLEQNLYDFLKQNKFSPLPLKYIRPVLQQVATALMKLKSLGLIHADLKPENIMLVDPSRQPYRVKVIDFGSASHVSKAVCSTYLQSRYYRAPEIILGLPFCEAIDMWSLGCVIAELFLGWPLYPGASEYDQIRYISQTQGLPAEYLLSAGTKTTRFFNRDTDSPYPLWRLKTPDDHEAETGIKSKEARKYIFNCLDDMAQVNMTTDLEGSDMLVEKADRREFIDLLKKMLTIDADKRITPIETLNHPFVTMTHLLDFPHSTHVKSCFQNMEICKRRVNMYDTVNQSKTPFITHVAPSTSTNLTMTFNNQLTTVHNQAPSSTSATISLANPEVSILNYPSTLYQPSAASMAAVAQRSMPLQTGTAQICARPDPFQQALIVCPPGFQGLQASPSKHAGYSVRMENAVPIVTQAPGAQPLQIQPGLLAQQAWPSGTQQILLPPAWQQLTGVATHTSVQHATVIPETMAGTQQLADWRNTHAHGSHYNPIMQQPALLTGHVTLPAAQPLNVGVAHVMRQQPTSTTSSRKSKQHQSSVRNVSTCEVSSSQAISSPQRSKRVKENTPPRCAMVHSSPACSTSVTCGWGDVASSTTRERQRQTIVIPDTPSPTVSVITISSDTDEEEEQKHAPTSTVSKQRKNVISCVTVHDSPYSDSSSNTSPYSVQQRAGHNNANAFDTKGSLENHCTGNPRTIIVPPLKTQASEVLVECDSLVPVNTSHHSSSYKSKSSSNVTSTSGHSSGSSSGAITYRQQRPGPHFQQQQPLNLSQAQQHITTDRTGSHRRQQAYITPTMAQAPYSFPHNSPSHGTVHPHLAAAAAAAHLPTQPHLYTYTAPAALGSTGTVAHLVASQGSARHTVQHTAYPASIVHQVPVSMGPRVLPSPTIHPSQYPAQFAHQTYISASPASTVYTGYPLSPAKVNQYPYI
T2 sequence (Q00526 whole entry): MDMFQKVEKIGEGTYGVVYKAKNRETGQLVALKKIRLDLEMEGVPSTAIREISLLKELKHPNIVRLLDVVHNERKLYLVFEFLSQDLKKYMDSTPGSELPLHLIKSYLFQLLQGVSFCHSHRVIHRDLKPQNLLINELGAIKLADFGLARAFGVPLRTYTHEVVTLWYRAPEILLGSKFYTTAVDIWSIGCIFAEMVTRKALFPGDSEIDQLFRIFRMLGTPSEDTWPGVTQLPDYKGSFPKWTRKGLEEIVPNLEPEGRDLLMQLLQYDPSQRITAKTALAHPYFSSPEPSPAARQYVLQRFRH

Row | Compound | KINOMEscan: HIPK2 [1] | KINOMEscan: CDK3 [2] | KINOMEscan: MAP3K3 [3]
1 | COc1cc(C(=O)N2CCC(N3CCN(C)CC3)CC2)ccc1Nc1ncc2c(n1)N(C)c1ccccc1C(=O)N2C [15 (LRRK2-IN-1)] | 88 | 100 | 97
2 | COc1cc(C(=O)N2CCC(N3CCN(C)CC3)CC2)ccc1Nc1ncc2c(n1)N1CCc3cccc(c31)C(=O)N2C [Compound 24] | 88 | – | 98
3 | COc1cc(C(=O)N2CCC(N3CCN(C)CC3)CC2)ccc1Nc1ncc2c(n1)N(C1CCCC1)c1ccccc1C(=O)N2C [Compound 25, 11-cyclopentyl-2-((2-methoxy-4-(4-(4-methylpiperazin-1-yl)piperidine-1-carbonyl)phenyl)amino)-5-methyl-5H-benzo[e]pyrimido[5,4-b][1,4]diazepin-6(11H)-one] | 100 | 100 | 100
4 | CCOc1cc(C(=O)N2CCC(N3CCN(C)CC3)CC2)ccc1Nc1ncc2c(n1)N(C1CCCC1)c1ccccc1C(=O)N2C [Compound 26] | 100 | 100 | 100
